In patent publication US10660877B2 (BRISTOL-MYERS SQUIBB COMPANY, priority 2016, dated 2020):
Where two headings read alike, the source gives them in different places.

Experiments:
human TLR8 = human TLR8 (Homo sapiens (Human), UniProt Q9NR97); assay: TLR8 inhibition reporter assay (HEK-Blue cells, SEAP reporter, R848 stimulation);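 note: compounds tested from 0.05 nM to 50 µM, 22 h at 37 °C, SEAP measured with HEK-Blue Detection, inhibition relative to agonist plus DMSO versus a known inhibitor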
human TLR7 = human TLR7 (Homo sapiens (Human), UniProt Q9NYK1); assay: TLR7 inhibition reporter assay (HEK-Blue cells, SEAP reporter, gardiquimod stimulation); assay type: cell-based
human TLR9 = human TLR9 (Homo sapiens (Human), UniProt Q9NR96); assay: TLR9 inhibition reporter assay (HEK-Blue cells, SEAP reporter, ODN2006 stimulation);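 note: compounds tested over 0.05 nM to 50 µM, 22 h incubation, inhibition taken as SEAP signal drop from agonist plus DMSO wells toward a known inhibitor control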
[1] = read-out: TLR8 IC50, HEK-Blue cells overexpressing human TLR8, R848 15.9 μM
[2] = HEK-Blue cells overexpressing human TLR7, gardiquimod 7.5 μM
[3] = read-out: TLR9 IC50, HEK-Blue cells overexpressing human TLR9, ODN2006 5 nM
[4] = read-out: TLR8 IC50, HEK-Blue cells, R848 15.9 μM
[5] = HEK-Blue cells, gardiquimod 7.5 μM
[6] = read-out: TLR9 IC50, HEK-Blue cells, ODN2006 5 nM

Chain of human TLR8 (Q9NR97 27-1041): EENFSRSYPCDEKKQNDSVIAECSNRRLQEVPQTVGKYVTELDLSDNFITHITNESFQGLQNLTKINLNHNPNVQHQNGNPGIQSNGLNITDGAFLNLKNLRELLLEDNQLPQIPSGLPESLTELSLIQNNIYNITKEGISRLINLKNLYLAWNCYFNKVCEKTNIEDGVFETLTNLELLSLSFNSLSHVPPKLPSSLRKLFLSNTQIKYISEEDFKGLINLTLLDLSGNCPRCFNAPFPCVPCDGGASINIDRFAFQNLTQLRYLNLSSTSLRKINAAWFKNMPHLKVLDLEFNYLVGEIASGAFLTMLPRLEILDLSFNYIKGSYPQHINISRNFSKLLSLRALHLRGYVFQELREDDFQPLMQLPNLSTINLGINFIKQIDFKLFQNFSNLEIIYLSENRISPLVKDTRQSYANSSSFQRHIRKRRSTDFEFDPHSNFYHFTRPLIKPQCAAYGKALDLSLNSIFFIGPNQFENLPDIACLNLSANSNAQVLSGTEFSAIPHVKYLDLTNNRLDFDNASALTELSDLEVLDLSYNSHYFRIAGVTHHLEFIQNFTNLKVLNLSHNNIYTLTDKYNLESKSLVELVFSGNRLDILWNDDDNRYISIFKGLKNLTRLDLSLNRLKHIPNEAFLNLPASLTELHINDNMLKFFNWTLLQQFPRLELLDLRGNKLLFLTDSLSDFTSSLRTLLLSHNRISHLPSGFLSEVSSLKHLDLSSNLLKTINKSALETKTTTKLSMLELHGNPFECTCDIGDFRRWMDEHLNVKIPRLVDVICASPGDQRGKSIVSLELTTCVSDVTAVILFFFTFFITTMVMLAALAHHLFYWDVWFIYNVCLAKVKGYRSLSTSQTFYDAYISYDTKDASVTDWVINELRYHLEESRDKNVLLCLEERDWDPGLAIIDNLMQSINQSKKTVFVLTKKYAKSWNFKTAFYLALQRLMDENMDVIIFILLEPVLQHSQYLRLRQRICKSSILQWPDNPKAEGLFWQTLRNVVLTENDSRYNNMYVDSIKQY
Chain of human TLR9 (Q9NR96 26-1032): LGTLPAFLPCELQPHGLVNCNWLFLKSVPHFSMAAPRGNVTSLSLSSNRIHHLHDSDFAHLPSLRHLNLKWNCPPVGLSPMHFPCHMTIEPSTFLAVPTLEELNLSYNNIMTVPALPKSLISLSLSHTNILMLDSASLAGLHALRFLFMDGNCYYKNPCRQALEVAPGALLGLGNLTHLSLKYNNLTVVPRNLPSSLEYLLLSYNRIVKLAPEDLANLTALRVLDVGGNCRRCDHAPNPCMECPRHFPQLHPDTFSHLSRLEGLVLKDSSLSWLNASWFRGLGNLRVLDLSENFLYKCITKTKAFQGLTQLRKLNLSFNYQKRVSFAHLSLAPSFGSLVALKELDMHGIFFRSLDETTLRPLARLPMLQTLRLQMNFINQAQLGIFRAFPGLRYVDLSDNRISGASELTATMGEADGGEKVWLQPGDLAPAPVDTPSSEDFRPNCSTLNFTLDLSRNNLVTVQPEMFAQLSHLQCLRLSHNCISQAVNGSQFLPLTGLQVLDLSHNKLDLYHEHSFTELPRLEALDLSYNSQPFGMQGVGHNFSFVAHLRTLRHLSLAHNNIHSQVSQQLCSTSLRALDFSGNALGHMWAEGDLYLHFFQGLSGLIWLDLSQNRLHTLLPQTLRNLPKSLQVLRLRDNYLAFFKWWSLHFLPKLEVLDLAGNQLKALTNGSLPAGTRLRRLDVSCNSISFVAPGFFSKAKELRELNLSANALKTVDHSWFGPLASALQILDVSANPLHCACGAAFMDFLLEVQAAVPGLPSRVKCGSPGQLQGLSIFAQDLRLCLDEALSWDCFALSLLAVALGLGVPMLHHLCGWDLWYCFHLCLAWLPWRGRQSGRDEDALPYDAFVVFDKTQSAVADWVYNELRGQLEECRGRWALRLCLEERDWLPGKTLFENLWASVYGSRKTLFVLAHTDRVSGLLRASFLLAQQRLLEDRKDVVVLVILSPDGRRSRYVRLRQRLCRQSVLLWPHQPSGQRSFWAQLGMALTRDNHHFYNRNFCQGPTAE
Chain of human TLR7 (Q9NYK1 27-1049): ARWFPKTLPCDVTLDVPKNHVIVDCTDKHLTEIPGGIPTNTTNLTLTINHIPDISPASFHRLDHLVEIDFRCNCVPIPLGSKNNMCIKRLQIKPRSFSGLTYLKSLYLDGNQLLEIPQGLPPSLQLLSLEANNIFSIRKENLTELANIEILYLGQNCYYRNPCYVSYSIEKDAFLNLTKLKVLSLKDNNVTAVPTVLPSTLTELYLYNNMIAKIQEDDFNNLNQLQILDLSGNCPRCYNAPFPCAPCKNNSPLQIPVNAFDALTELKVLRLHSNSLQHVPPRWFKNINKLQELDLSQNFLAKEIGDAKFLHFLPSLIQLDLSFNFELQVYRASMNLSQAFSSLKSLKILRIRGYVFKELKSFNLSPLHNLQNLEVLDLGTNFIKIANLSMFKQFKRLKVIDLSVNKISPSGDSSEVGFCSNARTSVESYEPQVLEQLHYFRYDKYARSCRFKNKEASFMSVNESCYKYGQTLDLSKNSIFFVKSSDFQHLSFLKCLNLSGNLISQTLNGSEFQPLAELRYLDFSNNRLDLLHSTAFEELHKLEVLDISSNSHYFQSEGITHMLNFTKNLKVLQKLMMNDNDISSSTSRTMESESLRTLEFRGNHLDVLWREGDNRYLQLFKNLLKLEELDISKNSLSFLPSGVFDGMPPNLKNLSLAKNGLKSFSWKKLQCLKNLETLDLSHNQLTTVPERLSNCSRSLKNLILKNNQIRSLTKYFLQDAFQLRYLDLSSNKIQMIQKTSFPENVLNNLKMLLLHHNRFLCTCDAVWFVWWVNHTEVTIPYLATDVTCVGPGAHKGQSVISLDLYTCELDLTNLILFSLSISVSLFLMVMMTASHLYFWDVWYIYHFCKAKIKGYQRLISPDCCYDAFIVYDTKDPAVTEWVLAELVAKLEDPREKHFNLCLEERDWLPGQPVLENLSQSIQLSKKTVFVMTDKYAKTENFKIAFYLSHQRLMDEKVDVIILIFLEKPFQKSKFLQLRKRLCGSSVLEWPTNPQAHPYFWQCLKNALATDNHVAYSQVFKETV

| IC50 (human TLR8; [1]) | IC50 (human TLR7; [2]) | IC50 (human TLR9; [3]) | IC50 (human TLR8; TLR8 IC50, HEK-Blue cells overexpressing human TLR8, R848 15.9 μM) | IC50 (human TLR9; TLR9 IC50, HEK-Blue cells overexpressing human TLR9, ODN2006 5 nM) | IC50 (human TLR8; [4]) | IC50 (human TLR7; [5]) | IC50 (human TLR9; [6]) | Compound |
| --- | --- | --- | --- | --- | --- | --- | --- | --- |
| 102 nM | 33.3 nM | 44500 nM |  |  |  |  |  | Cc1cc(-c2[nH]c3ccc(C4CCN(C(=O)C5(C)COC5)CC4)cc3c2C(C)C)ccn1 [Example 596, (4-(3-isopropyl-2-(2-methylpyridin-4-yl)-1H-indol-5-yl)piperidin-1-yl)(3-methyloxetan-3-yl)methanone] |
| 113 nM | 2 nM | 3180 nM |  |  |  |  |  | Cc1cc(-c2[nH]c3ccc(C4CCN(C(=O)c5ccon5)CC4)cc3c2C(C)C)cc(C)n1 [Example 203, (4-(2-(2,6-dimethylpyridin-4-yl)-3-isopropyl-1H-indol-5-yl)piperidin-1-yl)(isoxazol-3-yl)methanone] |
| 269 nM | 599 nM | 408 nM |  |  |  |  |  | CCc1c(-c2ccnc(OC)c2)[nH]c2ccc(C3CCN(C4CCN(CC5CC5)CC4)CC3)cc12 [Example 789, 5-(1′-(cyclopropylmethyl)-[1,4′-bipiperidin]-4-yl)-3-ethyl-2-(2-methoxypyridin-4-yl)-1H-indole] |
| 39.1 nM | 8.2 nM | 1780 nM |  |  |  |  |  | Cc1cc(-c2[nH]c3ccc(C4CCN(C(=O)Cc5cn(C)cn5)CC4)cc3c2C(C)C)cc(C)n1 [Example 137, 1-(4-(2-(2,6-dimethylpyridin-4-yl)-3-isopropyl-1H-indol-5-yl)piperidin-1-yl)-2-(1-methyl-1H-imidazol-4-yl)ethan-1-one] |
| 1.6 nM | 3.3 nM | 617 nM |  |  |  |  |  | Cc1cc(-c2[nH]c3ccc(C4CCN(Cc5cncs5)CC4)cc3c2C(C)C)cc(C)n1 [Example 444, 5-((4-(2-(2,6-dimethylpyridin-4-yl)-3-isopropyl-1H-indol-5-yl)piperidin-1-yl)methyl)thiazole] |
| 29.6 nM | 371 nM | 252 nM |  |  |  |  |  | CCc1c(-c2ccnc(OC)c2)[nH]c2ccc(C3CCN(C4CCCN(C5CCCC5)CC4)CC3)cc12 (stereo not drawn) [Example 793, 5-(1-(1-cyclopentylazepan-4-yl)piperidin-4-yl)-3-ethyl-2-(2-methoxypyridin-4-yl)-1H-indole] |
| 3.2 nM | 2.5 nM | 506 nM |  |  |  |  |  | Cc1cc(-c2[nH]c3ccc(C4CCN(CC5CC5)CC4)cc3c2C(C)C)cc(C)n1 [Example 474, 5-(1-(cyclopropylmethyl)piperidin-4-yl)-2-(2,6-dimethylpyridin-4-yl)-3-isopropyl-1H-indole] |
| 49.4 nM | 7.9 nM | > 50000 nM |  |  |  |  |  | Cc1cc(-c2[nH]c3ccc(C4CCN(C(=O)CN5CCOCC5=O)CC4)cc3c2C(C)C)cc(C)n1 [Example 161, 4-(2-(4-(2-(2,6-dimethylpyridin-4-yl)-3-isopropyl-1H-indol-5-yl)piperidin-1-yl)-2-oxoethyl)morpholin-3-one] |
| 12.2 nM | 5.9 nM | 1560 nM |  |  |  |  |  | Cc1cc(-c2[nH]c3ccc(C4CCN(Cc5ncn(C)n5)CC4)cc3c2C(C)C)cc(C)n1 [Example 451, 2-(2,6-dimethylpyridin-4-yl)-3-isopropyl-5-(1-((1-methyl-1H-1,2,4-triazol-3-yl)methyl)piperidin-4-yl)-1H-indole] |
|  | 1.9 nM |  | 1.9 nM | 120 nM |  |  |  | CNCCN1CCC(c2ccc3[nH]c(-c4cc(C)nc(C)c4)c(C(C)C)c3c2)CC1 [Example 428, 2-(4-(2-(2,6-dimethylpyridin-4-yl)-3-isopropyl-1H-indol-5-yl)piperidin-1-yl)-N-methylethan-1-amine] |
| 5.9 nM | 15.8 nM | 1590 nM |  |  |  |  |  | Cc1cc(-c2[nH]c3ccc(C4CCN(C5CCOC5)CC4)cc3c2C(C)C)ccn1 (stereo not drawn) [Example 717, 3-isopropyl-2-(2-methylpyridin-4-yl)-5-(1-(tetrahydrofuran-3-yl)piperidin-4-yl)-1H-indole] |
| 1230 nM | 3750 nM | 98 nM |  |  |  |  |  | CCc1c(-c2ccnc(N(C)C)c2)[nH]c2ccc(C3CCN(C4CCN(CC(C)C)CC4)CC3)cc12 [Example 767, 4-(3-ethyl-5-(1′-isobutyl-[1,4′-bipiperidin]-4-yl)-1H-indol-2-yl)-N,N-dimethylpyridin-2-amine] |
| 84.9 nM | 304 nM | 686 nM |  |  |  |  |  | CCc1c(-c2ccnc(OC)c2)[nH]c2ccc(C3CCN(C4CCN(CC)CC4)CC3)cc12 [Example 792, 3-ethyl-5-(1′-ethyl-[1,4′-bipiperidin]-4-yl)-2-(2-methoxypyridin-4-yl)-1H-indole] |
| 83.8 nM | 15 nM | 46700 nM |  |  |  |  |  | Cc1cc(-c2[nH]c3ccc(C4CCN(C(=O)CN5CC(=O)NC5=O)CC4)cc3c2C(C)C)cc(C)n1 [Example 151, 1-(2-(4-(2-(2,6-dimethylpyridin-4-yl)-3-isopropyl-1H-indol-5-yl)piperidin-1-yl)-2-oxoethyl)imidazolidine-2,4-dione] |
| 124 nM | 18.1 nM | 3200 nM |  |  |  |  |  | Cc1cc(-c2[nH]c3ccc(C4CCN(CC(=O)N5C[C@@H](C(F)(F)F)C[C@H]5CO)CC4)cc3c2C(C)C)cc(C)n1 [Example 291, 2-(4-(2-(2,6-dimethylpyridin-4-yl)-3-isopropyl-1H-indol-5-yl)piperidin-1-yl)-1-((2S,4S)-2-(hydroxymethyl)-4-(trifluoromethyl)pyrrolidin-1-yl)ethan-1-one] |
| 3 nM | 1.5 nM | 1290 nM |  |  |  |  |  | Cc1cc(-c2[nH]c3ccc(C4CCN(CC(N)=O)CC4)cc3c2C(C)C)c(F)cn1 [Example 652, 2-(4-(2-(5-fluoro-2-methylpyridin-4-yl)-3-isopropyl-1H-indol-5-yl)piperidin-1-yl)acetamide] |
| 16.7 nM | 4.3 nM | 1110 nM |  |  |  |  |  | COCCNCC(=O)N1CCC(c2ccc3[nH]c(-c4cc(C)nc(C)c4)c(C(C)C)c3c2)CC1 [Example 346, 1-(4-(2-(2,6-dimethylpyridin-4-yl)-3-isopropyl-1H-indol-5-yl)piperidin-1-yl)-2-((2-methoxyethyl)amino)ethan-1-one] |
| 107 nM | 537 nM | 2390 nM |  |  |  |  |  | CCc1c(-c2cc(Cl)ncc2F)[nH]c2ccc(C3CCN(C4CCN(CC(C)C)CC4)CC3)cc12 [Example 760, 2-(2-chloro-5-fluoropyridin-4-yl)-3-ethyl-5-(1′-isobutyl-[1,4′-bipiperidin]-4-yl)-1H-indole] |
| 9590 nM | 7190 nM | > 50000 nM |  |  |  |  |  | Cc1cc(-c2[nH]c3ccc(C4CC(C)(C)N(C)C(C)(C)C4)cc3c2C(C)C)cc(C)n1 [Example 496, 2-(2,6-dimethylpyridin-4-yl)-3-isopropyl-5-(1,2,2,6,6-pentamethylpiperidin-4-yl)-1H-indole] |
| 50.9 nM | 5.9 nM | 250 nM |  |  |  |  |  | Cc1cc(-c2[nH]c3ccc(C4CCN(C(=O)CN5CCCCS5(=O)=O)CC4)cc3c2C(C)C)cc(C)n1 [Example 167, 1-(4-(2-(2,6-dimethylpyridin-4-yl)-3-isopropyl-1H-indol-5-yl)piperidin-1-yl)-2-(1,1-dioxido-1,2-thiazinan-2-yl)ethan-1-one] |
| 878 nM | 500 nM | 13500 nM |  |  |  |  |  | Cc1cc(-c2[nH]c3ccc(C4CCN(C(=O)OC(C)C)CC4)cc3c2C(C)C)ccn1 [Example 559, isopropyl 4-(3-isopropyl-2-(2-methylpyridin-4-yl)-1H-indol-5-yl)piperidine-1-carboxylate] |
| 7.6 nM | 10.9 nM | 390 nM |  |  |  |  |  | Cc1cc(-c2[nH]c3ccc(C4CCN(C5CC(C)OC(C)C5)CC4)cc3c2C(C)C)cc(C)n1 (stereo not drawn) [Example 455, 2-(2,6-dimethylpyridin-4-yl)-5-(1-(2,6-dimethyltetrahydro-2H-pyran-4-yl)piperidin-4-yl)-3-isopropyl-1H-indole] |
|  |  |  |  |  | 248 nM | 31 nM | 10100 nM | Cc1cc(-c2[nH]c3ccc(C4CCN(CC(=O)O)CC4)cc3c2C(C)C)cc(C)n1 [Example 875, 2-(4-(2-(2,6-dimethylpyridin-4-yl)-3-isopropyl-1H-indol-5-yl)piperidin-1-yl)acetic acid] |
| 24.7 nM | 10.5 nM | 102 nM |  |  |  |  |  | CCc1c(-c2cc(C)nc(C)c2)[nH]c2ccc(C3CCN(CC(=O)N(C)C)CC3)cc12 [Example 526, 2-(4-(2-(2,6-dimethylpyridin-4-yl)-3-ethyl-1H-indol-5-yl)piperidin-1-yl)-N,N-dimethylacetamide] |
|  |  |  |  |  | 5.7 nM | 1.9 nM | 519 nM | Cc1cc(-c2[nH]c3ccc(C4CCN(C(=O)C(=O)N(C)CCN(C)C)CC4)cc3c2C(C)C)cc(C)n1 [Example 858, N-(2-(dimethylamino)ethyl)-2-(4-(2-(2,6-dimethylpyridin-4-yl)-3-isopropyl-1H-indol-5-yl)piperidin-1-yl)-N-methyl-2-oxoacetamide] |
|  |  |  |  |  | 56 nM | 224 nM | 177 nM | CC(C)c1c(-c2ccnc(N)c2)[nH]c2ccc(C3CCN(Cc4cnc[nH]4)CC3)cc12 [Example 817, 4-(5-(1-((1H-imidazol-5-yl)methyl)piperidin-4-yl)-3-isopropyl-1H-indol-2-yl)pyridin-2-amine] |
| 550 nM | 2180 nM | 1630 nM |  |  |  |  |  | CCc1c(-c2ccnc(-c3noc(N)n3)c2)[nH]c2ccc(C3CCNCC3)cc12 [Example 65, 3-(4-(3-ethyl-5-(piperidin-4-yl)-1H-indol-2-yl)pyridin-2-yl)-1,2,4-oxadiazol-5-amine] |
| 6.3 nM | 24.4 nM | 5890 nM |  |  |  |  |  | Cc1cc(-c2[nH]c3ccc(C4CCN(C5COC5)CC4)cc3c2C(C)C)c(C)cn1 [Example 722, 2-(2,5-dimethylpyridin-4-yl)-3-isopropyl-5-(1-(oxetan-3-yl)piperidin-4-yl)-1H-indole] |
